Measurements from patent US7820714B2, “Siglec inhibitors” (priority 2001, dated 2010).
Where two headings read alike, the source gives them in different places.

Key:
Siglec-1 (sialoadhesin) = Siglec-1 (sialoadhesin) (Mus musculus, UniProt Q62230); experiment: Hapten inhibition assay, Siglec-1 (sialoadhesin); format: binding; settings: for Siglec-1 (sialoadhesin) percentage in parentheses below the IC50 bound: at the concentration of the IC50 bound, meaning not defined in the patent; for Siglec-1 (sialoadhesin) rIP: quotient IC50 reference compound / IC50 compound
Siglec-4a (MAG) = biological target: T1, Siglec-4a (MAG) (UniProt P20917); experiment: Hapten inhibition assay, Siglec-4a (MAG); settings: for Siglec-4a (MAG) percentage in parentheses below the IC50 bound: at the concentration of the IC50 bound, meaning not defined in the patent; for Siglec-4a (MAG) rIP: quotient IC50 reference compound / IC50 compound; for IC50: read-out: Siglec-4a (MAG) IC50
T1 sequence (P20917 1-627): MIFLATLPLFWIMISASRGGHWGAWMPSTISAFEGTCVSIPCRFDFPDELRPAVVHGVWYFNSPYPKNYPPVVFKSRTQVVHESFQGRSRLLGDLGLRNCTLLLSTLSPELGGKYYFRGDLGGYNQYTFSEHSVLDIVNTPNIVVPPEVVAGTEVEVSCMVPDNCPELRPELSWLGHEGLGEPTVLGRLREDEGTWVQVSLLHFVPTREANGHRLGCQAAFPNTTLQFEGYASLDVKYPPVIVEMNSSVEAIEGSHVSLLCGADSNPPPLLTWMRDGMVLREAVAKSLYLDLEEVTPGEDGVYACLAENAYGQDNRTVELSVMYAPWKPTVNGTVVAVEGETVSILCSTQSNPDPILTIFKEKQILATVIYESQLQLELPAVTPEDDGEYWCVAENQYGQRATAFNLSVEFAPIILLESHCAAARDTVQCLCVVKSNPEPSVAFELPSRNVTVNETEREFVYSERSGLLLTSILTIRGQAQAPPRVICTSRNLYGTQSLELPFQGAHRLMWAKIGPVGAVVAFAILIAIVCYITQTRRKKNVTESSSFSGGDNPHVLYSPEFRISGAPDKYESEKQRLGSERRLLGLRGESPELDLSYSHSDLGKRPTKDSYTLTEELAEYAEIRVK

Siglec-2 (human CD22) = biological target: T2, Siglec-2 (human CD22) (Homo sapiens, UniProt P20273); experiment: Hapten inhibition assay, Siglec-2 (human CD22); format: binding
T2 sequence (P20273 20-138 limits assumed): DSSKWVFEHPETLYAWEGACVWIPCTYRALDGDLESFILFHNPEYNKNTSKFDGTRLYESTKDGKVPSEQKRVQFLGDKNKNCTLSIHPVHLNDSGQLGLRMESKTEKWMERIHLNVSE
Method: (§1) Preferably, the inhibition can be determined by a Hapten inhibition test. […] After overnight incubation at 4° C. the unbound complexes are removed by washing the cells and the bound radioactivity is determined. From the data obtained in this way, the concentrations are found which lead to 50% inhibition of the binding (IC50 values) (5, 6). Specially preferred during the Hapten inhibition test was 10 μl of the complex solution with an activity of 10^3 Bq ^125I mixed with the same volume of a solution of the substance to be investigated (concentrated three times) and incubated at 4° C. for one hour. Then followed the addition of 10 μl of a suspension of target cells, preferably 0.25 to 0.5% of human erythrocytes and incubation overnight at 4° C. The unbound radioactivity is removed by washing the cells five times with 200 μl of washing buffer, preferably phosphate-buffered saline with 0.1% (W/V) bovine serum albumin, and the cell-bound activity is determined with a γ-counter. […] The inhibition is determined in that the value without inhibitor is set to 0% and that with the sialidase-treated cells is set equal to 100%.
(§2) The IC50 value is the siglec inhibitor concentration which leads to 50% inhibition in the binding in the Hapten inhibition assay.

Siglec-2 (murine CD22) = biological target: T3, Siglec-2 (murine CD22) (Mus musculus, UniProt P35329); experiment: Hapten inhibition assay, Siglec-2 (murine CD22); format: binding
T3 sequence (P35329 22-148 limits assumed): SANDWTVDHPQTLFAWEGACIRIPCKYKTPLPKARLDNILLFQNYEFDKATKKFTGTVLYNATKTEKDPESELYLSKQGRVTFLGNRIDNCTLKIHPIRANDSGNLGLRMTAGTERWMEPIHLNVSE
Method: as §1, §2

[1] = quotient IC50 reference compound / IC50 compound

Chain of Siglec-1 (sialoadhesin) (Q62230 20-136 limits assumed): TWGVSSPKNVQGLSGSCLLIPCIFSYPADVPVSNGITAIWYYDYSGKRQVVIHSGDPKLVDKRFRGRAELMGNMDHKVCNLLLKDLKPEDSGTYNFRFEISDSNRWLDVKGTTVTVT

Molecule	Siglec-1 (sialoadhesin) percentage in parentheses below the IC50 bound (Siglec-1 (sialoadhesin))	IC50 (Siglec-1 (sialoadhesin); bounds given in mM)	Siglec-1 (sialoadhesin) rIP (Siglec-1 (sialoadhesin))	Siglec-4a (MAG) percentage in parentheses below the IC50 bound (Siglec-4a (MAG))	Siglec-4a (MAG) rIP (Siglec-4a (MAG))	IC50 (Siglec-4a (MAG); bounds given in mM)	IC50 (Siglec-1 (sialoadhesin); unit inferred)	IC50 (Siglec-4a (MAG); unit inferred)	Siglec-2 (human CD22) rIP (Siglec-2 (human CD22); [1])	IC50 (Siglec-2 (human CD22); unit inferred)	Siglec-2 (murine CD22) rIP (Siglec-2 (murine CD22); [1])	IC50 (Siglec-2 (murine CD22); unit inferred)
CO[C@]1(C(=O)O)C[C@H](O)[C@@H](NC(C)=O)[C@H]([C@H](O)[C@H](O)CNC(=O)CN)O1 [Methyl-α-9-N-aminoacetyl-9-desoxy-Neu5Ac]			0.3		3.3		7.48 mM	3.4 mM				
Methyl-α-methyl-α-5-N-fluoracetylaminoacetyl-neuraminic acid			0.4	(90%)		> 10 mM	2.5 mM					
COC1(C(=O)O)CC(O)C(NC(C)=O)C(C(O)C(O)CNS(=O)(=O)c2cccc3c(N(C)C)cccc23)O1 (stereo not drawn) [Methyl-α-9-N-dansyl-amino-9-desoxy-Neu5Ac]			2.6		19		0.26 mM	0.317 mM				
CO[C@]1(C(=O)O)C[C@H](O)[C@@H](NC(=O)CO)[C@H]([C@H](O)[C@H](O)CO)O1 [Methyl-α-5-N-glycolyl-neuraminic acid]									1.0	1010 µM	8.3	703 µM
COC1(C(=O)O)CC(O)C(NC(C)=O)C(C(O)C(O)CNC(=O)CC(C)=O)O1 (stereo not drawn) [Methyl-α-9-N-acetoacetyl-amino-9-desoxy-Neu5Ac]	(62%)	> 10 mM	<0.05		6.2			1.01 mM				
COC1(C(=O)O)CC(O)C(NC(C)=O)C(C(O)C(O)CNC(=O)CNC(=O)CN)O1 (stereo not drawn) [Methyl-α-9-N-(gly)2-amino-9-desoxy-Neu5Ac]	(100%)	> 10 mM	<<0.1		0.9			5 mM				
CCC(=O)NC1C(O)CC(OCc2ccccc2)(C(=O)O)OC1C(O)C(O)CO (stereo not drawn) [Benzyl-α-5-N-propanoyl-neuraminic acid]			3.4		4.8		0.215 mM	2.5 mM				

Continued, values first:

Siglec-1 (sialoadhesin) percentage in parentheses below the IC50 bound (Siglec-1 (sialoadhesin))	IC50 (Siglec-1 (sialoadhesin); bounds given in mM)	Siglec-1 (sialoadhesin) rIP (Siglec-1 (sialoadhesin))	Siglec-4a (MAG) percentage in parentheses below the IC50 bound (Siglec-4a (MAG))	Siglec-4a (MAG) rIP (Siglec-4a (MAG))	IC50 (Siglec-4a (MAG); bounds given in mM)	IC50 (Siglec-1 (sialoadhesin); unit inferred)	IC50 (Siglec-4a (MAG); unit inferred)	Siglec-2 (human CD22) rIP (Siglec-2 (human CD22); [1])	IC50 (Siglec-2 (human CD22); unit inferred)	Siglec-2 (murine CD22) rIP (Siglec-2 (murine CD22); [1])	IC50 (Siglec-2 (murine CD22); unit inferred)	Molecule
(11%)	< 10 mM	>>0.05	(88%)	<<0.27	> 10 mM							COC1(C(=O)O)CC(O)C(NC(C)=O)C(C(O)C(O)CNC(=O)CNC(=O)CNC(=O)CN)O1 (stereo not drawn) [Methyl-α-9-N-(gly)3-amino-9-desoxy-Neu5Ac]
(63%)		<0.2	(87%)	<<2.4		> 4 mM	> 1 mM					COC1(C(=O)O)CC(O)C(NC(C)=O)C(C(O)C(O)C(=O)O)O1 (stereo not drawn) [Methyl-α-9-carboxy-Neu5Ac]
		0.7		54		1.46 mM	0.198 mM					CCCCCC(=O)NCC(O)C(O)C1OC(OC)(C(=O)O)CC(O)C1NC(C)=O (stereo not drawn) [Methyl-α-9-N-hexanoyl-amino-9-desoxy-Neu5Ac]
		<0.05		8.5		2 mM	0.697 mM					CO[C@]1(C(=O)O)C[C@H](O)[C@@H](NC(C)=O)[C@H]([C@H](O)[C@H](O)C[S+](C)[O-])O1 (stereo partly drawn) [Methyl-α-9-methylsulphoxido-9-desoxy-Neu5Ac]
		0.5		10		4 mM	0.55 mM					COC1(C(=O)O)CC(O)C(NC(C)=O)C(C(O)C(O)CNC(=O)C(F)(F)F)O1 (stereo not drawn) [Methyl-α-9-N-trifluoracetyl-amino-9-desoxy-Neu5Ac]
		2.4		7.3		0.385 mM	1.6 mM					CC(=O)N[C@H]1[C@H]([C@H](O)[C@H](O)CO)O[C@@](O[C@H]2[C@@H](O)[C@@H](CO)O[C@@H](O[C@H]3[C@H](O)[C@@H](O)C(O)O[C@@H]3CO)[C@@H]2O)(C(=O)O)C[C@@H]1O (some centres unmarked) [2,3-sialyllactose, reference compound]
		<<0.05		0.1		2 mM	3.4 mM					CO[C@]1(C(=O)O)C[C@H](O)[C@@H](NC(C)=O)[C@H]([C@H](O)[C@H](O)CS(C)(=O)=O)O1 [Methyl-α-9-methylsulphonyl-9-desoxy-Neu5Ac]
